Literature values as cited in patent US20110171124A1, “In situ methods for monitoring the EMT status of tumor cells in vivo” (OSI Pharmaceuticals, Inc., priority 2009, published 2011).

System: NSCLC
Conditions: phase III, monotherapy, advanced treatment-refractory NSCLC patients

C#Cc1cccc(Nc2ncnc3cc(OCCOC)c(OCCOC)cc23)c1 [erlotinib, [6,7-bis(2-methoxyethoxy)-4-quinazolin-4-yl]-(3-ethynylphenyl)amine]
disease progression: delayed disease progression
survival: significantly prolonged survival
worsening of lung cancer-related symptoms: delayed worsening of lung cancer-related symptoms
